# “Also recorded” adds a separate entry of the source.
# What was measured:
# [1] = in words; can be antagonised by naloxone; cited from earlier work
# rats [2] = conditions: in words, prior art section; cited from earlier work
# melanocytes = conditions: in words; cited from earlier work
# rats [3] = experiment: Pole-jumping avoidance behavior (pole climbing test), extinction of the flight response; assay type: in vivo, rat; conditions: mean ± S.E.
# Excerpt: Rats were trained to jump onto a pole within 5 sec. following presentation of the conditioned stimulus (CS) which was a light on top of the cage. […] 10 trials a day were given in one session with an average intertrial interval of 60 sec. Intervals between trials were 40, 60 and 80 sec. which were presented in a random fashion. Rats were trained for 4 days. Extinction was studied the day following acquisition. During this first post-acquisition session failure to respond within 5 sec. to the CS were not followed by the UCS. All rats were given a 10 trial extinction session. Those animals which made 8 or more avoidances were used for further experimentation. These rats received peptide or placebo (saline) in a volume of 0.5 ml per rat s.c. immediately after completion of the first extinction session. Extinction was studied again 2 and 4 h. later.
# opiate receptor = conditions: in words, prior art section; cited from earlier work
# rats [4] = experiment: Ambulation of rats; assay type: in vivo, rat; conditions: in words, higher dosages
# [5] = in words; cited from earlier work
# [6] = 0.03 μg per rat s.c., 0 h (first extinction session, injection immediately after)
# [7] = 0.03 μg per rat s.c., 2 h after injection
# [8] = 0.03 μg per rat s.c., 4 h after injection
# [9] = 0.1 μg per rat s.c., 0 h (first extinction session, injection immediately after)
# [10] = 0.1 μg per rat s.c., 2 h after injection
# [11] = 0.1 μg per rat s.c., 4 h after injection
# [12] = 0.3 μg per rat s.c., 0 h (first extinction session, injection immediately after)
# [13] = 0.3 μg per rat s.c., 2 h after injection
# [14] = 0.3 μg per rat s.c., 4 h after injection
compound,measurement,setting,value
"β-endorphin (YGGFMTSEKSQTPLVTLFKNAIIKNAYKKGE; Beta-endorphin; UniProt P01189 237-267, looked up)",analgesic activity,[1],possess analgesic activity
same,effect on extinction of the (active) flight response in the pole-climbing test,rats [2],inhibits the extinction of the (active) flight response
β-melanotropin,influencing the pigmentation of the skin,melanocytes,capable of influencing the pigmentation of the skin by stimulating the melanocytes
O=C(CCCN1CCC(O)(c2ccc(Cl)cc2)CC1)c1ccc(F)cc1 [Haloperidol],Extinction (10 trials),rats [3]; [6],9.3 ± 0.3
same,Extinction (10 trials),rats [3]; [7],6.5 ± 0.7
same,Extinction (10 trials),rats [3]; [8],4.0 ± 0.6
same,Extinction (10 trials),rats [3]; [9],9.5 ± 0.4
same,Extinction (10 trials),rats [3]; [10],3.0 ± 0.0
same,Extinction (10 trials),rats [3]; [11],0.5 ± 0.4
Leu-enkephalin,affinity for the opiate receptor,opiate receptor,Affinity for the opiate receptor
γ-endorphin,effect on extinction of the (active) flight response in the pole-climbing test,rats [2],accelerate the extinction of the flight response
same,reduction in ambulation,rats [4],could not be observed
same,Extinction (10 trials),rats [3]; [6],8.8 ± 0.3
same,Extinction (10 trials),rats [3]; [7],6.7 ± 0.8
same,Extinction (10 trials),rats [3]; [8],4.0 ± 0.7
same,Extinction (10 trials),rats [3]; [9],9.3 ± 0.3
same,Extinction (10 trials),rats [3]; [10],5.5 ± 0.6
same,Extinction (10 trials),rats [3]; [11],2.3 ± 0.4
same,Extinction (10 trials),rats [3]; [12],9.0 ± 0.4
same,Extinction (10 trials),rats [3]; [13],4.6 ± 0.3
same,Extinction (10 trials),rats [3]; [14],0.8 ± 0.4
γ-lipotropin,fat-mobilising activity,[5],possesses fat-mobilising properties
Met-enkephalin,effect on extinction of the (active) flight response in the pole-climbing test,rats [2],inhibit the extinction of the flight response
same,affinity for the opiate receptor,opiate receptor,a certain affinity for the opiate receptor
D-Ala-Met-enkephalin,affinity for the opiate receptor,opiate receptor,Affinity for the opiate receptor
α-endorphin,effect on extinction of the (active) flight response in the pole-climbing test,rats [2],inhibit the extinction of the flight response; also recorded: retarded this extinction of the flight response
same,reduction in ambulation,rats [4],could not be observed
same,affinity for the opiate receptor,opiate receptor,a certain affinity for the opiate receptor
same,Extinction (10 trials),rats [3]; [12],9.0 ± 0.4
same,Extinction (10 trials),rats [3]; [13],8.3 ± 0.3
same,Extinction (10 trials),rats [3]; [14],7.8 ± 0.3
"H-GGFMTSEKSQTPLVTL-OH [[Des-Tyr^1]γ-endorphin, H-Gly-Gly-Phe-Met-Thr-Ser-Glu-Lys-Ser-Gln-Thr-Pro-Leu-Val-Thr-Leu-OH]",Extinction (10 trials),"rats [3]; 0.01 μg per rat s.c., 0 h (first extinction session, injection immediately after)",9.0 ± 0.3
same,Extinction (10 trials),"rats [3]; 0.01 μg per rat s.c., 2 h after injection",6.2 ± 0.4
same,Extinction (10 trials),"rats [3]; 0.01 μg per rat s.c., 4 h after injection",4.2 ± 0.7
same,Extinction (10 trials),rats [3]; [9],8.8 ± 0.4
same,Extinction (10 trials),rats [3]; [10],2.8 ± 1.0
same,Extinction (10 trials),rats [3]; [11],1.2 ± 0.5
same,Extinction (10 trials),rats [3]; [12],9.3 ± 0.5
same,Extinction (10 trials),rats [3]; [13],3.0 ± 0.7
same,Extinction (10 trials),rats [3]; [14],1.3 ± 0.5
β-LPH-(61-69),effect on extinction of the (active) flight response in the pole-climbing test,rats [2],inhibit the extinction of the flight response
same,affinity for the opiate receptor,opiate receptor,a certain affinity for the opiate receptor
β-Lipotropin,fat-mobilising activity,[5],shows fat-mobilising activity
